Experimental findings from ChEMBL document CHEMBL1145914 (J Med Chem, 2003) are described below.

A short description of data set [1]: in vivo. The note with it: dog.
In the next data set the target is Coagulation factor X (Homo sapiens, UniProt P00742). The data set is described as follows: Tested in vitro for inhibition of human Coagulation factor X.
The next data set deals with Prothrombin (Homo sapiens, UniProt P00734). The data set is described as follows: In vitro for inhibition of human thrombin.
A further data set is filed under the species Homo sapiens. The data set is described as follows: human activated partial thromboplastin time (APTT). The format is functional.
The target in a further data set is Serine protease 1 (Homo sapiens, UniProt P07477). The experiment in a line: Tested in vitro for inhibition of human trypsin.
Chain of Serine protease 1 (P07477 whole entry): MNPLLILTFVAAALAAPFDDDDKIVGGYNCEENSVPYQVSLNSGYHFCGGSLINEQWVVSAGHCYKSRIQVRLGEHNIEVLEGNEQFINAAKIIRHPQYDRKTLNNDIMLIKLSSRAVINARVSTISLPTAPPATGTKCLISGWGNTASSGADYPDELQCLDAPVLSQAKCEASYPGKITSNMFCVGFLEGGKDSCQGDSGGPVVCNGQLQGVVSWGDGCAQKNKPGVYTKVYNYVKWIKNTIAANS
The nature of data set [2]: in vivo. The note with it: dog. This is another data set of the same source.
Data set [3] can be described thus: in vivo. The note with it: dog. The source holds these as a separate data set.
The nature of data set [4]: in vivo. The note with it: dog. The source holds these as a separate data set.
The nature of data set [5]: in vivo. The note with it: eutheria.

Chain of Coagulation factor X (P00742 41-179 limits assumed): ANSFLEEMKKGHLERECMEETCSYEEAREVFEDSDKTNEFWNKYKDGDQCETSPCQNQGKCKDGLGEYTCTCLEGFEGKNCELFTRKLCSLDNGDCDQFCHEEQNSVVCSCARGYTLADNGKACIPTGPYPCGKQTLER
Chain of Coagulation factor X (P00742 235-488 limits assumed): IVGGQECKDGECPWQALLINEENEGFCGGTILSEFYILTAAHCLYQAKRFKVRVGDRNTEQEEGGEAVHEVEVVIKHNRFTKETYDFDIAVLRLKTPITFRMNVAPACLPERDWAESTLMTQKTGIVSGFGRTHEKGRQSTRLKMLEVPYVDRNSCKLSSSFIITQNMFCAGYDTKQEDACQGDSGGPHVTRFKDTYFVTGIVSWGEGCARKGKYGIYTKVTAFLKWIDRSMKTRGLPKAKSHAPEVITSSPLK

Consider `COc1ccc(-n2nc(C(F)(F)F)cc2C(=O)Nc2ccc(-c3ccccc3S(N)(=O)=O)cn2)cc1`, for which the Vd in the data set “in vivo [1]” is 1.8 L/kg. The inhibition constant (Ki) was 2.8 nM on Coagulation factor X, more than 21 µM at Prothrombin and more than 1600 nM on Serine protease 1. The molecule further came in with an IC2x in the data set filed under Homo sapiens of 18.8 µM. The half-life in “in vivo [2]” was 360 min. The molecule also had a clearance in “in vivo [3]” of 2 mL/min/kg. For the same molecule, in the data set “in vivo [4]”, the Cmax was 730 nM.

`COc1ccc(-n2nc(C)cc2C(=O)Nc2ccc(-c3ccccc3S(N)(=O)=O)cc2)cc1` returned a bioavailability in “in vivo [5]” of 48%. The molecule further registered a Ki on Serine protease 1 of more than 1500 nM. In the data set “in vivo [2]”, this molecule gave a half-life of 268 min. The highest level in the data set “in vivo [4]” (Cmax) was 3860 nM.

Broadly, the Vd is the apparent volume that relates the amount in the body to the concentration in plasma or blood. The low end stands for little distribution into tissue, the high end for wide distribution into tissue. As usually defined, the Ki is the dissociation constant of the complex between target and ligand, obtained from inhibition or displacement. Read a high Ki as a looser hold on the target. As usually defined, the half-life is the time needed for the level to fall by half in the phase considered. A low value points to rapid decline. One may read the clearance as the rate of elimination divided by the concentration. Low readings indicate a low capacity for elimination, high ones a high capacity for elimination. For orientation: Cmax means the maximum level reached in the sampled fluid or tissue. By bioavailability is commonly meant dose-corrected exposure relative to a reference, in per cent.
